Data reported in publication PMC11405271, “Atypical cellular responses mediated by intracellular constitutive active TrkB (NTRK2) kinase domains and a solely intracellular NTRK2-fusion oncogene” (Cancer Gene Therapy, 2024).

Target: T1, TrkB-wt (Mus musculus, UniProt P15209)
T1 construct: gene Ntrk2; full-length receptor with kinase domain, pcDNA3, transiently overexpressed in HEK293; 130 kDa mature and 90 kDa underglycosylated
Assay: Western blot and immunofluorescence of pTrk-kin, transfected HEK293
Format: cell-based
Conditions: no neurotrophin, constitutive kinase activity; concentrations only in figure

T1 sequence (P15209 32-821): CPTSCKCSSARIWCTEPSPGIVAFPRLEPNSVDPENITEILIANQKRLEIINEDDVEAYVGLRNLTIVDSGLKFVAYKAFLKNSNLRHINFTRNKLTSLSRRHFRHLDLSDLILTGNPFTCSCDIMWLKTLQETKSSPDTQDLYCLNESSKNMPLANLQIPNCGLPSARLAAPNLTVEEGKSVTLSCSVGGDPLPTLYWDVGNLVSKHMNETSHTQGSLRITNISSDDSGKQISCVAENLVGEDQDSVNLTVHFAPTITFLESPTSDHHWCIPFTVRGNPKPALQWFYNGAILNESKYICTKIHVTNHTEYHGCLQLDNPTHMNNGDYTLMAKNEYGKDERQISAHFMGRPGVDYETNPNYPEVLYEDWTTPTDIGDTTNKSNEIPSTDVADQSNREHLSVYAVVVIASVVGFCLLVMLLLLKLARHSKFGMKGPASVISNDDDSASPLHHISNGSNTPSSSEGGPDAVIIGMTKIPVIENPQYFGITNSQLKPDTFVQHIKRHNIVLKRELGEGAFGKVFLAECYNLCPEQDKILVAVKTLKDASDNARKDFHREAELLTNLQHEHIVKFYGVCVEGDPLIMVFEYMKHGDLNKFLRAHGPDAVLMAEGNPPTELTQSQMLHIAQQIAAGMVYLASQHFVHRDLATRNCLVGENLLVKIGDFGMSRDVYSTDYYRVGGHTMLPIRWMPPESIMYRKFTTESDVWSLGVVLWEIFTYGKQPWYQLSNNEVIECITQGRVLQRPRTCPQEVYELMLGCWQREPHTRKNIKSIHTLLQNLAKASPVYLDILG

Row | SMILES | Western blot and immunofluorescence of pTrk-kin, transfected HEK293
1 | CN1CCN(c2ccc(C(=O)Nc3n[nH]c4ccc(Cc5cc(F)cc(F)c5)cc34)c(NC3CCOCC3)c2)CC1 [Entrectinib] | TrkB self-activity is reduced upon inhibitor treatment
2 | O=C(Nc1cnn2ccc(N3CCC[C@@H]3c3cc(F)ccc3F)nc12)N1CC[C@H](O)C1 [LOXO-101] | TrkB self-activity is reduced upon inhibitor treatment
